From ChEMBL document CHEMBL1129595, “Potent 6-desfluoro-8-methylquinolones as new lead compounds in antibacterial chemotherapy” (J Med Chem, 1996)
pIC50: −log10 of the molar value. Values after ≈ are worked out from the molar mass of the structure shown.

Tests used:
DNA gyrase = DNA gyrase (Escherichia coli, UniProt P0AES4+P0AES6); assay: Inhibitory effect against Escherichia coli Gyrase in Supercoiling assay; assay type: protein-complex assay
Haemophilus influenzae = assay: In vitro antibacterial activity against Haemophilus influenzae; assay type: functional
Enterococcus faecalis [1] = assay: In vitro antibacterial activity against Enterococcus faecalis LEP Br; assay type: functional
Escherichia coli [2] = assay: In vitro antibacterial activity against Escherichia coli ATCC 25922; assay type: functional
[3] = Mean MIC against gram negative; assay type: functional
Staphylococcus aureus [4] = assay: In vitro antibacterial activity against Staphylococcus aureus MPR 5; assay type: functional
Proteus mirabilis = assay: In vitro antibacterial activity against Proteus mirabilis OBT 505; assay type: functional
Klebsiella pneumoniae = assay: In vitro antibacterial activity against Klebsiella pneumoniae ATCC 10031; assay type: functional
Enterococcus faecalis [5] = assay: In vitro antibacterial activity against Enterococcus faecalis UCMC 39690; assay type: functional
Streptococcus pyogenes = assay: In vitro antibacterial activity against Streptococcus pyogenes OMNFI BI; assay type: functional
Proteus vulgaris = assay: In vitro antibacterial activity against Proteus vulgaris CNUR 6; assay type: functional
Pseudomonas aeruginosa [6] = assay: In vitro antibacterial activity against Pseudomonas aeruginosa […] 9027; assay type: functional
Pseudomonas aeruginosa [7] = assay: In vitro antibacterial activity against Pseudomonas aeruginosa OBT 307; assay type: functional
Staphylococcus aureus [8] = assay: In vitro antibacterial activity against Staphylococcus aureus ATCC 29213; assay type: functional
Escherichia coli [9] = assay: In vitro antibacterial activity against Escherichia coliCPX-R OBT 431; assay type: functional
Escherichia coli [10] = assay: In vitro antibacterial activity against Escherichia coli 120; assay type: functional
[11] = Mean MIC against gram positive; assay type: functional
Staphylococcus aureus [12] = assay: In vitro antibacterial activity against Staphylococcus aureus CPX-R OBT 687; assay type: functional
Enterobacter cloacae = assay: In vitro antibacterial activity against Enterobacter cloacae OMNFI 174; assay type: functional
Streptococcus pneumoniae = assay: In vitro antibacterial activity against Streptococcus pneumoniae I 0.43; assay type: functional
Staphylococcus aureus [13] = assay: In vitro antibacterial activity against Staphylococcus aureus M-R POMM 6214; assay type: functional

pIC50 (DNA gyrase)	MIC (Haemophilus influenzae) [mg/L]	MIC (Enterococcus faecalis [1]) [mg/L]	MIC (Escherichia coli [2]) [mg/L]	MIC [3] [mg/L]	MIC (Staphylococcus aureus [4]) [mg/L]	MIC (Proteus mirabilis) [mg/L]	MIC (Klebsiella pneumoniae) [mg/L]	MIC (Enterococcus faecalis [5]) [mg/L]	MIC (Streptococcus pyogenes) [mg/L]	MIC (Proteus vulgaris) [mg/L]	MIC (Pseudomonas aeruginosa [6]) [mg/L]	MIC (Pseudomonas aeruginosa [7]) [mg/L]	MIC (Staphylococcus aureus [8]) [mg/L]	MIC (Escherichia coli [9]) [mg/L]	MIC (Escherichia coli [10]) [mg/L]	MIC (Staphylococcus aureus [12]) [mg/L]	MIC (Enterobacter cloacae) [mg/L]	MIC (Streptococcus pneumoniae) [mg/L]	MIC (Staphylococcus aureus [13]) [mg/L]	Structure (SMILES)	other results
5.03	< 0.016	0.25 (≈ 0.642 µM)	0.125 (≈ 0.321 µM)	0.998 (≈ 2.56 µM)	< 0.016	> 16	0.03 (≈ 0.077 µM)	0.125 (≈ 0.321 µM)	< 0.016	8 (≈ 20.5 µM)	8 (≈ 20.5 µM)	> 16	< 0.016	> 16	0.125 (≈ 0.321 µM)	2 (≈ 5.14 µM)	0.5 (≈ 1.28 µM)	0.25 (≈ 0.642 µM)	< 0.016	Cc1c(N2CCc3ccccc3C2)c(N)cc2c(=O)c(C(=O)O)cn(C3CC3)c12	MIC [11]: 0.075 mg/L (≈ 0.193 µM)
5.16	< 0.016	0.03 (≈ 0.0871 µM)	< 0.016	0.29 (≈ 0.842 µM)	< 0.016	1 (≈ 2.9 µM)	< 0.016	< 0.016	< 0.016	2 (≈ 5.81 µM)	1 (≈ 2.9 µM)	4 (≈ 11.6 µM)	< 0.016	16 (≈ 46.5 µM)	< 0.016	0.125 (≈ 0.363 µM)	0.5 (≈ 1.45 µM)	< 0.016	< 0.016	Cc1c(N2CCCCC2)c(F)cc2c(=O)c(C(=O)O)cn(C3CC3)c12	MIC [11]: 0.022 mg/L (≈ 0.0639 µM)
5.12	< 0.016	0.5 (≈ 1.27 µM)	0.125 (≈ 0.319 µM)	0.869 (≈ 2.21 µM)	< 0.016	4 (≈ 10.2 µM)	0.06 (≈ 0.153 µM)	0.06 (≈ 0.153 µM)	0.03 (≈ 0.0764 µM)	4 (≈ 10.2 µM)	4 (≈ 10.2 µM)	16 (≈ 40.8 µM)	< 0.016	> 16	0.25 (≈ 0.637 µM)	1 (≈ 2.55 µM)	0.5 (≈ 1.27 µM)	0.25 (≈ 0.637 µM)	< 0.016	Cc1c(N2CCc3ccccc3C2)c(F)cc2c(=O)c(C(=O)O)cn(C3CC3)c12	MIC [11]: 0.074 mg/L (≈ 0.189 µM)
5.00	< 0.016	1 (≈ 3.06 µM)	0.03 (≈ 0.0919 µM)	0.534 (≈ 1.64 µM)	< 0.016	4 (≈ 12.3 µM)	< 0.016	0.03 (≈ 0.0919 µM)	0.03 (≈ 0.0919 µM)	8 (≈ 24.5 µM)	4 (≈ 12.3 µM)	16 (≈ 49 µM)	< 0.016	> 16	0.03 (≈ 0.0919 µM)	1 (≈ 3.06 µM)	0.25 (≈ 0.766 µM)	< 0.016	< 0.016	Cc1c(N2CCCCC2)ccc2c(=O)c(C(=O)O)cn(C3CC3)c12	MIC [11]: 0.052 mg/L (≈ 0.159 µM)
–	0.25 (≈ 0.73 µM)	0.5 (≈ 1.46 µM)	0.06 (≈ 0.175 µM)	–	< 0.016	2 (≈ 5.84 µM)	< 0.016	0.125 (≈ 0.365 µM)	2 (≈ 5.84 µM)	8 (≈ 23.4 µM)	2 (≈ 5.84 µM)	16 (≈ 46.7 µM)	< 0.016	> 16	0.06 (≈ 0.175 µM)	0.5 (≈ 1.46 µM)	0.25 (≈ 0.73 µM)	0.25 (≈ 0.73 µM)	< 0.016	Cc1c(N2CCC(O)CC2)ccc2c(=O)c(C(=O)O)cn(C3CC3)c12	–
4.68	0.06 (≈ 0.16 µM)	1 (≈ 2.67 µM)	1 (≈ 2.67 µM)	1.85 (≈ 4.94 µM)	0.03 (≈ 0.0801 µM)	> 16	0.125 (≈ 0.334 µM)	0.5 (≈ 1.34 µM)	0.25 (≈ 0.668 µM)	> 16	> 16	> 16	< 0.016	> 16	2 (≈ 5.34 µM)	2 (≈ 5.34 µM)	0.03 (≈ 0.0801 µM)	1 (≈ 2.67 µM)	0.25 (≈ 0.668 µM)	Cc1c(N2CCc3ccccc3C2)ccc2c(=O)c(C(=O)O)cn(C3CC3)c12	MIC [11]: 0.272 mg/L (≈ 0.726 µM)
